Reference: patent publication US8895617B1, “Composition and method for treating neurological disease” (Adamas Pharmaceuticals, Inc., priority 2004, dated 2014)
Entries after “also recorded” stand apart in the source; their conditions may differ.

Key:
[1] = Estimated amantadine concentration in squirrel monkeys; format: in vivo, squirrel monkey; conditions: amantadine raised from 1 mg/kg to 45 mg/kg
Protocol: Briefly, squirrel monkeys (N=4) were lesioned with MPTP according to the protocol of Di Monte et al. (Mov. Disord. 15: 459-66 (2000)). […] Levodopa treatment at approximately 15 mg/kg (with 1.5 mg/kg carbidopa) mg/kg b.i.d. commenced a baseline UPDRS and dyskinesia measurement was established. […] We hypothesize that this translates into a potential 40% reduction in levodopa required to maintain UPDRS.

[2] = In vitro release profile, USP type 2 (paddle) dissolution; format: physicochemical; conditions: USP II Paddle, 0.1N HCl
Protocol: Compositions containing an aminoadamantane and levodopa/carbidopa are analyzed for release of the aminoadamantane and levodopa/carbidopa, according to the USP type 2 apparatus at a speed of 50 rpm. The dissolution media used include water, 0.1N HCl, or 0.1N HCl adjusted to pH 6.8 at 2 hours with phosphate buffer. The dissolution medium is equilibrated to 37±0.5° C.
The USP reference assay method for amantadine is used to measure the fraction of memantine released from the compositions prepared herein. Briefly, 0.6 mL sample (from the dissolution apparatus at a given time point) is placed into a 15 mL culture tube. 1.6 mL 0.1% Bromocresol Purple (in acetic acid) is added and vortexed for five seconds. The mixture is allowed to stand for approximately five minutes. 3 mL Chloroform is added and vortexed for five seconds. The solution is next centrifuged (speed […]) for five minutes. The top layer is removed with a disposable pipette. A sample is drawn into 1 cm flow cell and the absorbance is measured at 408 nm at 37° C. and compared against a standard curve prepared with known quantities of the same aminoadamantane. The quantity of determined is plotted against the dissolution time for the sample.
The USP reference assay method for levodopa is used to measure the fraction of levodopa released from the compositions prepared herein. Briefly, 0.5 ml samples from the dissolution apparatus removed at various times are assayed by liquid chromatography. The chromatograph is equipped with a 280 nm detector and a 3.9 mm×30 cm column containing packing Ll. The mobile phase is 0.09 N sodium phosphate, 1 mM sodium 1-decanesulfonate, pH 2.8. With the flow rate adjusted to about 2 mL per minute, the levodopa elutes in about 4 minutes and carbidopa elutes in about 11 minutes. From the saved dissolution samples, a 0.02 ml aliquot is injected into the chromatograph and the absorbance is measure and compared to standard to determine concentration & quantity. The quantity dissolved is then plotted against the dissolution time for the sample.
The cumulative fraction is the amount of drug substance released from the formulation matrix to the serum or gut environment (e.g., U.S. Pat. No. 4,839,177 or 5,326,570) or as measured with a USP II Paddle system using 0.1N HCl as the dissolution medium.

[3] = humans; cited from earlier work

Row | Compound | estimated concentration [1] [μm] | cum. fraction released ([2]; Time 0, amantadine and levodopa/carbidopa combination) | cum. fraction released ([2]; Time 0.5) | cum. fraction released ([2]; Time 1.0) | cum. fraction released ([2]; Time 2.0) | cum. fraction released ([2]; Time 4.0) | cum. fraction released ([2]; Time 8.0) | cum. fraction released ([2]; Time 12.0) | Dose Dependent Toxicity [3]
1 | NC12CC3CC(CC(C3)C1)C2 [Amantadine, 1-amino-adamantane] | ~3 | 0.00 | 0.10 | 0.20 | 0.35 | 0.60 | 0.90 | 0.98 | 
2 | CC12CC3CC(C)(C1)CC(N)(C3)C2 [Memantine, 1-amino-3,5-dimethyladamantane] |  |  |  |  |  |  |  |  | Dose escalation; also recorded: hallucination
3 | CC(N)C12CC3CC(CC(C3)C1)C2 (stereo not shown) [Rimantadine, 1-(1-aminoethyl)adamantane] |  |  |  |  |  |  |  |  | Insomnia
